From BindingDB's records for doi:10.7270/Q2HT2MQ5 (Nmmlsc, 2009)

Target: Cell division control protein 42 homolog (Homo sapiens, UniProt P60953)
Assay: wild-type Cdc42 nucleotide-binding inhibitors, SAR follow-up, biochemical, bead-based multiplex flow cytometry, oxadiazole series (AID 2037)
Details: inactive by the depositor's call

Sequence of Cell division control protein 42 homolog (P60953 whole entry): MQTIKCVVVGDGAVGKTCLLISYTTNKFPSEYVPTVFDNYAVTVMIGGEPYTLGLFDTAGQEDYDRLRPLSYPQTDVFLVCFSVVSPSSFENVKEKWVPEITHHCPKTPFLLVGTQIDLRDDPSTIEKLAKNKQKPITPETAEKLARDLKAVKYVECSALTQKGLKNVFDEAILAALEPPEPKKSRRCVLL

COc1ccc(-c2noc(CCC(=O)N3CCN(c4ccc(OC)cc4)CC3)n2)cc1 [3-[3-(4-methoxyphenyl)-1,2,4-oxadiazol-5-yl]-1-[4-(4-methoxyphenyl)piperazin-1-yl]propan-1-one]
Ki: 100 nM
